ChEMBL document CHEMBL4346659, “Design, synthesis and evaluation of novel 7H-pyrrolo[2,3-d]pyrimidin-4-amine derivatives as potent, selective and reversible Bruton's tyrosine kinase (BTK) inhibitors for the treatment of rheumatoid arthritis” (Eur J Med Chem, 2019)

Tests used:
Ramos = test: Antiproliferative activity against human Ramos cells; format: functional, cell-based; parameters: fold change (FC): reference not given here; settings: for IC50: Homo sapiens, Ramos
[1] = molecular target: T1, Tyrosine-protein kinase BTK (Homo sapiens, UniProt Q06187); test: Inhibition of BTK (unknown origin) at 0.1 uM in the presence of ATP by caliper mobility shift assay relative to control
T1 sequence (Q06187 whole entry): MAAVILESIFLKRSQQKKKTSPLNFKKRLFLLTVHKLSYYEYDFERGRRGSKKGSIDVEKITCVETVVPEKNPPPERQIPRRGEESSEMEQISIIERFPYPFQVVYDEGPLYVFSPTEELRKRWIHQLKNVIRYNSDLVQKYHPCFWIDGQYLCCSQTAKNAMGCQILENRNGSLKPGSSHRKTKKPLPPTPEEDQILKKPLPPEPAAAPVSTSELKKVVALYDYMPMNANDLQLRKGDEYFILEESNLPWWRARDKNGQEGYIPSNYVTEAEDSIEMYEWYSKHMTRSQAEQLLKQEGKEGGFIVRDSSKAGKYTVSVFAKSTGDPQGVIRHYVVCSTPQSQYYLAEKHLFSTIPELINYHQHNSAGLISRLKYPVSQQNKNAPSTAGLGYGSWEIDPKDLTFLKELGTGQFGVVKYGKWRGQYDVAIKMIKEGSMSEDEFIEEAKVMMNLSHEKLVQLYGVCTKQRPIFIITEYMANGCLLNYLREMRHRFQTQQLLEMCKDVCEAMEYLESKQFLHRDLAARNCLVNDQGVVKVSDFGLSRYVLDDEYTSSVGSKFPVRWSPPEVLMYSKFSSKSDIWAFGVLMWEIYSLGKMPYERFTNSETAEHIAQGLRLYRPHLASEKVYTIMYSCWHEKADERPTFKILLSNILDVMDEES

[2] = molecular target: T1, Tyrosine-protein kinase BTK; test: Inhibition of BTK (unknown origin) at 1 uM in the presence of ATP by caliper mobility shift assay relative to control
Daudi = test: Antiproliferative activity against human Daudi cells; format: functional, cell-based; parameters: fold change (FC): reference not given here; settings: for IC50: Homo sapiens, Daudi
JeKo-1 = test: Antiproliferative activity against human JeKo1 cells; format: functional, cell-based; parameters: fold change (FC): reference not given here; settings: for IC50: Homo sapiens, JeKo-1
[3] = molecular target: T1, Tyrosine-protein kinase BTK; test: Inhibition of BTK (unknown origin) in the presence of ATP by caliper mobility shift assay

Row | SMILES | IC50 (Ramos) | inhibition [1] | inhibition [2] | IC50 (Daudi) | IC50 (JeKo-1) | IC50 [3] | fold change (FC) (Ramos) | fold change (FC) (Daudi) | fold change (FC) (JeKo-1)
1 | Nc1ncnc2c1c(-c1ccc3c(c1)OCO3)nn2C[C@H]1CCCN1C[C@@H]1CO1 | 47.4 µM | 13.9% | 56.7% | 30.5 µM | 43.2 µM |  |  |  | 
2 | Nc1ncnc2c1c(-c1ccc3c(c1)OCO3)cn2C[C@H]1CCN(C[C@@H]2CO2)C1 | 27 µM | 23.9% | 63.7% | 15 µM | 7.25 µM |  |  |  | 
3 | Nc1ncnc2c1c(-c1cccc(-n3ncc4ccccc4c3=O)c1)cn2[C@H]1CCN(C[C@@H]2CO2)C1 | 15.2 µM | 3.41% | 17.5% | 14.6 µM | 15.2 µM |  |  |  | 
4 | Nc1ncnc2c1c(-c1ccc3c(c1)OCO3)cn2C[C@H]1CCCN1C[C@@H]1CO1 | 18 µM | 81.6% | 94.5% | 8.97 µM | 4.83 µM | 0.0089 µM |  |  | 
5 | Nc1ncnc2c1c(-c1ccc3c(c1)OCO3)cn2[C@H]1CCN(CC2CC2)C1 | 16.9 µM | 0.04% | 15.2% | 24.6 µM | 1.45 µM |  |  |  | 
6 | COC(CN1CC[C@H](n2cc(-c3ccc4c(c3)OCO4)c3c(N)ncnc32)C1)OC | 24.9 µM | 4.71% | 37.1% | 53.5 µM | 2.45 µM |  |  |  | 
7 | Nc1ncnc2c1c(-c1ccc3c(c1)OCO3)cn2[C@H]1CCN(C[C@@H]2CO2)C1 | 12.5 µM | 87.6% | 93.5% | 2.39 µM | 3.41 µM | 0.0366 µM |  |  | 
8 | Nc1ncnc2c1c(-c1ccc3c(c1)OCO3)cn2[C@H]1CCN(C(=O)c2ccccn2)C1 | 20.7 µM | 1.45% | 28.1% | 12.3 µM | 19.5 µM |  |  |  | 
9 | CC(C)(C)c1ccc(C(=O)Nc2cccc(-c3cn([C@H]4CCN(C[C@@H]5CO5)C4)c4ncnc(N)c34)c2)cc1 | 4.82 µM | 2.29% | 22.2% | 5.97 µM | 2.54 µM |  |  |  | 
10 | Nc1ncnc2c1c(-c1cnc3[nH]ccc3c1)cn2C[C@H]1CCCN1C[C@@H]1CO1 |  | 13.7% | 26.9% |  |  |  |  |  | 
11 | Nc1ncnc2c1c(-c1ccc3c(c1)OCO3)cn2[C@H]1CCN(C(=O)c2ccccc2)C1 | 35.2 µM | 37.1% | 29.4% | 8.26 µM | 17 µM |  |  |  | 
12 | CN(C)C(=O)N1CC[C@H](n2cc(-c3ccc4c(c3)OCO4)c3c(N)ncnc32)C1 | 27.7 µM | 1.87% | 42.6% | 14.6 µM | 24.2 µM |  |  |  | 
13 | Nc1ncnc2c1c(-c1ccc3c(c1)OCO3)cn2[C@H]1CCN(C(=O)C2CC2)C1 |  | -3.67% | 34% |  |  | 0.045 µM |  |  | 
14 | COCCN1CC[C@H](n2cc(-c3ccc4c(c3)OCO4)c3c(N)ncnc32)C1 | 21.2 µM | 14.3% | 8.09% | 4.3 µM | 6.74 µM |  |  |  | 
15 | Nc1ncnc2c1c(-c1ccc(Oc3ccccc3)cc1)cn2C[C@H]1CCCN1C(CO)CO | 15.3 µM | 18.3% | 54.7% | 28.2 µM | 14.5 µM |  |  |  | 
16 | Nc1ncnc2c1c(-c1ccc(Oc3ccccc3)cc1)cn2[C@H]1CCN(C[C@H]2CO2)C1 | > 50 µM | 52% | 90.1% | 15.7 µM | 5.08 µM | 0.0894 µM | 3 - 10 | 3 - 10 | 3 - 10
17 | Nc1ncnc2c1c(-c1ccc3c(c1)OCO3)cn2C[C@@H]1CCCN(C[C@@H]2CO2)C1 | 13.1 µM | 16.2% | 49.2% | 10.5 µM | 8.85 µM |  |  |  | 
18 | N#CCCN1CC[C@H](n2cc(-c3ccc4c(c3)OCO4)c3c(N)ncnc32)C1 | 13.2 µM | 21.6% | 67.8% | 10.2 µM | 1.84 µM |  |  |  | 
19 | Nc1ncnc2c1c(-c1ccc3c(c1)OCO3)cn2[C@H]1CCN(C[C@H]2CO2)C1 | 5 µM | 62.2% | 86.5% | 2.44 µM | 2.28 µM | 0.0419 µM |  |  | 
20 | Nc1ncnc2c1c(-c1ccc3c(c1)OCO3)cn2C[C@@H]1CCCN1C[C@@H]1CO1 | 29 µM | 13.5% | 47.6% | 19 µM | 21.6 µM |  |  |  | 
21 | CC1(C(=O)N2CC[C@H](n3cc(-c4ccc5c(c4)OCO5)c4c(N)ncnc43)C2)COC1 | 39 µM | -0.35% | 22.4% | 30.5 µM | 36.4 µM |  |  |  | 
22 | CC(C)(C)c1ccc(Oc2ccc(-c3cn([C@H]4CCN(C[C@@H]5CO5)C4)c4ncnc(N)c34)cc2)cc1 | 11.2 µM | 5.96% | 19.1% | 6.49 µM | 14.8 µM |  |  |  | 
23 | Nc1ncnc2c1c(-c1ccc3c(c1)OCO3)cn2C[C@@H]1CCN(C[C@@H]2CO2)C1 | 13.3 µM | 48.3% | 86.3% | 15.9 µM | 10.3 µM | 0.123 µM |  |  | 

Row | SMILES | IC50 (Ramos) | inhibition [1] | inhibition [2] | IC50 (Daudi) | IC50 (JeKo-1) | IC50 [3] | fold change (FC) (Ramos) | fold change (FC) (Daudi) | fold change (FC) (JeKo-1)
24 | Nc1ncnc2c1c(-c1cnc3[nH]ccc3c1)cn2[C@H]1CCN(C[C@@H]2CO2)C1 | 4.65 µM | 12.8% | 46.6% | 2.99 µM | 9.44 µM |  |  |  | 
25 | Nc1ncnc2c1c(-c1ccc(Oc3ccccc3)cc1)cn2C[C@H]1CCCN1C[C@@H](O)CO | 13.5 µM | 23.9% | 62.5% | 14.4 µM | 9.54 µM |  |  |  | 
26 | Nc1ncnc2c1c(-c1cc3ccccc3o1)cn2[C@H]1CCN(C[C@H]2CO2)C1 | 1.65 µM | 17.4% | 62.9% | 4.21 µM | 0.63 µM |  |  |  | 
27 | Nc1ncnc2c1c(-c1ccc3c(c1)OCO3)cn2C1CCN(C[C@@H]2CO2)CC1 | 32.8 µM | 60.2% | 89.4% | 21.3 µM | 12.9 µM |  |  |  | 
28 | CC(C)(C)c1ccc(CN2CC[C@H](n3cc(-c4ccc5c(c4)OCO5)c4c(N)ncnc43)C2)cc1 | 4.41 µM | 0.01% | 3% | 13.2 µM | 2.07 µM |  |  |  | 
29 | CCOC(=O)C(C)N1CC[C@H](n2cc(-c3ccc4c(c3)OCO4)c3c(N)ncnc32)C1 (stereo partly specified) | 9.92 µM | 5.71% | 44.1% | 25.5 µM | 1.21 µM |  |  |  | 
30 | C[C@@H]1C[C@H](n2cc(-c3ccc4c(c3)OCO4)c3c(N)ncnc32)CN1C[C@@H]1CO1 | 7.97 µM | 12.7% | 47.1% | 10.9 µM | 4.61 µM |  |  |  | 
31 | Nc1ncnc2c1c(-c1cc3ccccc3o1)cn2[C@H]1CCN(C[C@@H]2CO2)C1 | 6.74 µM | 20.2% | 59.1% | 4.51 µM | 2.82 µM |  |  |  | 
32 | Nc1ncnc2c1c(-c1ccc3c(c1)OCO3)cn2C1CCN(C2COC2)CC1 | 38 µM | 9.5% | 45.7% | 24.1 µM | 16.9 µM |  |  |  | 
33 | Nc1ncnc2c1c(-c1ccc(NC(=O)c3ccccc3)cc1)cn2[C@H]1CCN(C[C@@H]2CO2)C1 | 2.25 µM | 2.53% | 22.9% | 3.18 µM | 5.39 µM |  |  |  | 
34 | CN(C)CC(=O)N1CC[C@H](n2cc(-c3ccc4c(c3)OCO4)c3c(N)ncnc32)C1 | 21 µM | -0.41% | 23.7% | 23.1 µM | 28.4 µM |  |  |  | 
35 | Nc1ncnc2c1c(-c1ccc3c(c1)OCO3)cn2C1=CCN(C[C@@H]2CO2)CC1 | 2.11 µM | 1.81% | 42.6% | 5.02 µM | 12.8 µM |  |  |  | 
36 | Nc1ncnc2c1c(-c1ccc3c(c1)OCO3)cn2[C@H]1CCN(S(=O)(=O)C2CC2)C1 | 7.79 µM | 1.64% | 37.2% | 16.6 µM | 11.8 µM |  |  |  | 
37 | Nc1ncnc2c1c(-c1ccc3c(c1)OCO3)cn2CC1CCCO1 (stereo unspecified) | 24.2 µM | -6.11% | 21.8% | 20.9 µM | 17.1 µM |  |  |  | 
38 | CC(C)(C)c1ccc(COc2ccc(-c3cn([C@H]4CCN(C[C@@H]5CO5)C4)c4ncnc(N)c34)cc2)cc1 | 4.21 µM | 3.73% | 7.63% | 6.97 µM | 5.97 µM |  |  |  | 
39 | CC(C)(C)c1ccc(C(=O)Nc2ccc(-c3cn([C@H]4CCN(C[C@@H]5CO5)C4)c4ncnc(N)c34)cc2)cc1 | 2.97 µM | 15.7% | 53.8% | 5.98 µM | 3.29 µM |  |  |  | 
40 | Nc1ncnc2c1c(-c1ccc3c(c1)OCO3)cn2C[C@H]1CCCN(C[C@@H]2CO2)C1 | 15.1 µM | 34.7% | 70.3% | 10.6 µM | 7.96 µM |  |  |  | 
41 | Nc1ncnc2c1c(-c1ccc3c(c1)OCO3)cn2[C@H]1CCN(CC2CCCO2)C1 (stereo partly specified) | 27.1 µM | 3.01% | 18.9% | 25.9 µM | 3.88 µM |  |  |  | 
42 | Nc1ncnc2c1c(-c1ccc(C(=O)Nc3ccc(Oc4ccccc4)cc3)cc1)cn2[C@H]1CCN(C[C@@H]2CO2)C1 | 3.63 µM | 7.58% | 36.9% | 4.39 µM | 2.07 µM |  |  |  | 
43 | Nc1ncnc2c1c(-c1ccc3c(c1)OCO3)cn2[C@H]1CCN(CC2CO2)C1 (stereo partly specified) |  | 70.1% | 96.6% |  |  | 0.0455 µM |  |  | 
44 | Nc1ncnc2c1c(-c1ccc3c(c1)OCO3)cn2CC1CCN(C[C@@H]2CO2)CC1 | 10.9 µM | 14.2% | 59.9% | 12.5 µM | 15.3 µM |  |  |  | 
45 | Nc1ncnc2c1c(-c1ccc3c(c1)OCO3)cn2[C@H]1CCN(CCCO)C1 | 20.9 µM | 8.43% | 22.4% | 29.6 µM | 3.13 µM |  |  |  | 
46 | Nc1ncnc2c1c(-c1ccc3c(c1)OCO3)cn2[C@H]1CCN(Cc2cc(F)cc(F)c2)C1 | 6.6 µM | 6.07% | 30.2% | 11.6 µM | 1.69 µM |  |  |  | 
